Patent US20130102595A1 (Curis, Inc., priority 2011, published 2013)
pIC50: −log10 of the molar value.

What was measured:
PI3Kα (p110α/p85α) = target: T1, PI3Kα (p110α/p85α) (Homo sapiens, UniProt P42336); assay: PI3Kα ADP-Glo assay; type: biochemical; details: 20 μM PIP2, 10 μM ATP, 30 minutes
T1 construct: GST (N); made in house; host or cells: Baculovirus-infected Sf9 cells
How it was run: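 Recombinant full-length human GST-p110α/His-p85α, co-expressed in Sf9 cells, was incubated 30 min at room temperature with 20 μM PIP2 and 10 μM ATP. The buffer was 50 mM HEPES pH 7.4, 150 mM NaCl, 5 mM MgCl2, 1 mM DTT, 3 µM orthovanadate and 0.5% DMSO. ADP formed was detected by ADP-Glo luminescence.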

[1] = target: T2, mTor serine/threonine protein kinase (Homo sapiens, UniProt P42345); assay: mTor kinase radioisotope assay; type: biochemical; details: 70 uM ATP, 40 minutes; read-out: m-TOR IC50
T2 construct: FLAG; made in house; host or cells: Baculovirus expression system in Sf21 cells
How it was run: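 FLAG-tagged full-length recombinant human mTor from baculovirus/Sf21, incubated with p70S6K C-terminal fragment (2 mg/ml) and 70 uM ATP plus 33P-ATP tracer in 50 mM HEPES pH 7.5, 3 mM MnCl2, 40 min at room temperature. Phosphoric acid stop, filtermat capture, scintillation counting; IC50 from sigmoidal dose-response fit.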

H358 = assay: Cell proliferation assay (CellTiter-Glo); type: cell-based; details: Homo sapiens, NCI-H358; NSCLC; 72 hours, 0.5% fetal bovine serum; read-out: antiproliferative activity IC50, H358
Method: (§1) Cell Proliferation Assay:
(§2) Cancer cell lines were plated at 5,000 to 10,000 per well in 96-well flat bottomed plates with various concentration of compounds. The cells were incubated with compounds for 72 hours in the presence of 0.5% of fetal bovine serum. Growth inhibition was accessed by adenosine triphosphate (ATP) content assay using Promega CellTiter-Glo kit. Promega CellTiter-Glo kit is an ATP monitoring system based on firefly luciferase. Briefly, 16 μl of mammalian cell lysis and substrate solution was added to 84 μl of culture medium per well to lyse the cells and stabilize the ATP. The mixture was shaken and incubated for 30 minutes and subsequently the luminescence was measured.

H292 = assay: Cell proliferation assay (CellTiter-Glo); type: cell-based; details: Homo sapiens, NCI-H292; NSCLC; 72 hours, 0.5% fetal bovine serum; read-out: antiproliferative activity IC50, H292
Method: as §1, §2

H460 = assay: Cell proliferation assay (CellTiter-Glo); type: cell-based; details: Homo sapiens, NCI-H460; NSCLC; 72 hours, 0.5% fetal bovine serum; read-out: antiproliferative activity IC50, H460
Method: as §1, §2

H2122 = assay: Cell proliferation assay (CellTiter-Glo); type: cell-based; details: Homo sapiens, NCI-H2122; NSCLC; 72 hours, 0.5% fetal bovine serum; read-out: antiproliferative activity IC50, H2122
Method: as §1, §2

WiDr = assay: Cell proliferation assay (CellTiter-Glo); type: cell-based; details: Homo sapiens, Colon, 72 hours, 0.5% fetal bovine serum, read-out: antiproliferative activity IC50, WiDr
Method: as §1, §2

Calu6 = assay: Cell proliferation assay (CellTiter-Glo); type: cell-based; details: Homo sapiens, Calu-6; NSCLC; 72 hours, 0.5% fetal bovine serum; read-out: antiproliferative activity IC50, Calu6
Method: as §1, §2

HCT116 = assay: Cell proliferation assay (CellTiter-Glo); type: cell-based; details: Homo sapiens, HCT-116; Colon; 72 hours, 0.5% fetal bovine serum; read-out: antiproliferative activity IC50, HCT116
Method: as §1, §2

MiaPaca1 = assay: Cell proliferation assay (CellTiter-Glo); type: cell-based; details: Pancreas; 72 hours, 0.5% fetal bovine serum; read-out: antiproliferative activity IC50, MiaPaca1
Method: as §1, §2

A549 = assay: Cell proliferation assay (CellTiter-Glo); type: cell-based; details: Homo sapiens, NSCLC, 72 hours, 0.5% fetal bovine serum, read-out: antiproliferative activity IC50, A549
Method: as §1, §2

[2] = tested on: HDACs (HeLa cell nuclear extracts); assay: HDAC enzymatic activity, Biomol Color de Lys system; type: biochemical; details: 1 hour, 25° C.
How it was run: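 HeLa nuclear extract incubated with serially diluted compound and […] artificial substrate in 50 mM Tris/Cl pH 8.0, 137 mM NaCl, 2.7 mM KCl, 1 mM MgCl2. Run 1 h at 25 °C, stopped with developer. Fluorescence read (ex 350-380, em 440-460 nm); IC50 from sigmoidal dose-response fit.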

CFPAC-1 = assay: Cell proliferation assay (CellTiter-Glo); type: cell-based; details: Homo sapiens, Pancreas, 72 hours, 0.5% fetal bovine serum, read-out: antiproliferative activity IC50, CFPAC-1
Method: as §1, §2

MDA-MB-231 = assay: Cell proliferation assay (CellTiter-Glo); type: cell-based; details: Homo sapiens, Breast, 72 hours, 0.5% fetal bovine serum, read-out: antiproliferative activity IC50, MDA-MB-231
Method: as §1, §2

CaPan2 = assay: Cell proliferation assay (CellTiter-Glo); type: cell-based; details: Homo sapiens, Capan-2; Pancreas; 72 hours, 0.5% fetal bovine serum; read-out: antiproliferative activity IC50, CaPan2
Method: as §1, §2

SW1990 = assay: Cell proliferation assay (CellTiter-Glo); type: cell-based; details: Homo sapiens, Pancreas, 72 hours, 0.5% fetal bovine serum, read-out: antiproliferative activity IC50, SW1990
Method: as §1, §2

PANC-1 = assay: Cell proliferation assay (CellTiter-Glo); type: cell-based; details: Homo sapiens, Pancreas, 72 hours, 0.5% fetal bovine serum, read-out: antiproliferative activity IC50, PANC-1
Method: as §1, §2

T1 sequence (P42336 whole entry): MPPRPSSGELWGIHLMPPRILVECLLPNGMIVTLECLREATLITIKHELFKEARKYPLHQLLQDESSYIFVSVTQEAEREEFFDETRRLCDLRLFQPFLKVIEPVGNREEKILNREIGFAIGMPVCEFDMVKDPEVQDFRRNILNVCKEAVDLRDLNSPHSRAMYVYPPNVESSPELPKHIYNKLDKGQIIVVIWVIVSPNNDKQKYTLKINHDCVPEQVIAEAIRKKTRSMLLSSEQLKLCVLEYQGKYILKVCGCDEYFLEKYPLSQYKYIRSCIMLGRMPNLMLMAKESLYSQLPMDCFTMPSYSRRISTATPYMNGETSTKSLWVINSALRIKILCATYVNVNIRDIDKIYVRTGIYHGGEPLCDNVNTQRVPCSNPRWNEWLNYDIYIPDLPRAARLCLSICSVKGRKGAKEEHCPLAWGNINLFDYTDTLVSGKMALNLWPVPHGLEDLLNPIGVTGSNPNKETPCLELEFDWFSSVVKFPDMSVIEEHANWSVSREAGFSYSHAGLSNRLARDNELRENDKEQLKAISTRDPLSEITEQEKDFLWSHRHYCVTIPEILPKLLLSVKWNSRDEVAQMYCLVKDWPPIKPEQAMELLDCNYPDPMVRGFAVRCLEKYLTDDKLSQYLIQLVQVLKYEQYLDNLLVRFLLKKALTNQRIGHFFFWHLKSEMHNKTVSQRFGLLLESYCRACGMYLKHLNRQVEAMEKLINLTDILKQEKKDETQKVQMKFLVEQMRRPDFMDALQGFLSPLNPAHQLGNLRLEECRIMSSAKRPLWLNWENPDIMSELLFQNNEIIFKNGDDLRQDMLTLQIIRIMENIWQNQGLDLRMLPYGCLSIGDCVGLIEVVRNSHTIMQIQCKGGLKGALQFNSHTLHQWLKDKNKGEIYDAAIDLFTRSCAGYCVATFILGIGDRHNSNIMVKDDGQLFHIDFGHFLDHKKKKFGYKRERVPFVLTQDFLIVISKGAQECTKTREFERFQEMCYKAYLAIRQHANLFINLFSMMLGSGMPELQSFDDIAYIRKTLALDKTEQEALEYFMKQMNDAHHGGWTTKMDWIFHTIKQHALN
T1 sequence (P27986 whole entry partner): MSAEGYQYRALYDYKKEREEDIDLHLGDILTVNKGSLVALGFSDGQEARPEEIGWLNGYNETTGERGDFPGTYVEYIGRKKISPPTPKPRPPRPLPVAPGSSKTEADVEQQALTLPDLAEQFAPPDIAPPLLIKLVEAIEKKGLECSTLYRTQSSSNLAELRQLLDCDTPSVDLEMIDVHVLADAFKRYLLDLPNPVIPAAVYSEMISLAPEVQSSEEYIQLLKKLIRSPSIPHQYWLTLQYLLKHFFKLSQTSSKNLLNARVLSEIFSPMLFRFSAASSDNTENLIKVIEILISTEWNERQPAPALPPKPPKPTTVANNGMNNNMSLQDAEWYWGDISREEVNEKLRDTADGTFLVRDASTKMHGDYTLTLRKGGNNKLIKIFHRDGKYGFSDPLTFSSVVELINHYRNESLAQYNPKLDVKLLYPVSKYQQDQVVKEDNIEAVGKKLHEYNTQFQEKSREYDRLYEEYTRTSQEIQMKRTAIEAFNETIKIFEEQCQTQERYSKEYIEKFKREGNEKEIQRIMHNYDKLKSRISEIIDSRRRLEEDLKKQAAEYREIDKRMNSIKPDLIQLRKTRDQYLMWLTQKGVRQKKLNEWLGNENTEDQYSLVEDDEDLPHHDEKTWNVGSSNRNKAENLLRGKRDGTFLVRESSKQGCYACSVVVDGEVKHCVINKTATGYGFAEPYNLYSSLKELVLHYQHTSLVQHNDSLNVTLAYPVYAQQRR

SMILES	melting point [°C]	pIC50 (PI3Kα (p110α/p85α))	pIC50 [1]	pIC50 (H358)	pIC50 (H292)	pIC50 (H460)	pIC50 (H2122)	pIC50 (Calu6)	pIC50 (HCT116)	pIC50 (MiaPaca1)	pIC50 (A549)	pIC50 [2]	pIC50 (MDA-MB-231)	pIC50 (SW1990)	pIC50 (PANC-1)	pIC50 (WiDr)	pIC50 (CFPAC-1)	pIC50 (CaPan2)
C[C@H](O)c1cccc(-c2nc(N3CCOCC3)c3sc(CN(C)c4ncc(C(=O)NO)cn4)cc3n2)c1 [Compound 296, (S)—N-Hydroxy-2-(((2-(3-(1-hydroxyethyl)phenyl)-4-morpholinothieno[3,2-d]pyrimidin-6-yl)methyl)(methyl)amino)pyrimidine-5-carboxamide]	168 to 172	6.00 to 7.00	< 5.00	7.00 to 8.00	7.00 to 8.00	7.00 to 8.00	7.00 to 8.00	7.00 to 8.00	> 8.00	7.00 to 8.00	7.00 to 8.00	> 7.00	–	–	–	> 8.00	–	–
CN(Cc1cc2nc(-c3cccc(OCCO)c3)nc(N3CCOCC3)c2s1)c1ncc(C(=O)NO)cn1 [Compound 289, 2-({2-[3-(2-Hydroxy-ethoxy)-phenyl]-4-morpholin-4-yl-thieno[3,2-d]pyrimidin-6-ylmethyl}-methyl-amino)-pyrimidine-5-carboxylic acid hydroxyamide]	148 to 152	> 7.00	–	> 8.00	> 8.00	7.00 to 8.00	> 8.00	–	> 8.00	> 8.00	7.00 to 8.00	> 7.00	–	–	–	> 8.00	–	–
CNc1ncc(-c2nc(N3CCOCC3)c3sc(CN(C)c4ncc(C(=O)NO)cn4)cc3n2)cn1 [Compound 116, N-hydroxy-2-(methyl((2-(2-(methylamino)pyrimidin-5-yl)-4-morpholinothieno[3,2-d]pyrimidin-6-yl)methyl)amino)pyrimidine-5-carboxamide]	183 to 187	> 7.00	> 7.00	–	–	–	–	7.00 to 8.00	–	7.00 to 8.00	–	> 7.00	7.00 to 8.00	7.00 to 8.00	7.00 to 8.00	7.00 to 8.00	6.00 to 7.00	7.00 to 8.00
CN(Cc1cc2nc(-c3ccc(N)cc3Cl)nc(N3CCOCC3)c2s1)c1ncc(C(=O)NO)cn1 [Compound 284, 2-(((2-(4-Amino-2-chlorophenyl)-4-morpholinothieno[3,2-d]pyrimidin-6-yl)methyl)(methyl)amino)-N-hydroxypyrimidine-5-carboxamide]	179 to 183	> 7.00	–	> 8.00	–	7.00 to 8.00	> 8.00	–	> 8.00	7.00 to 8.00	7.00 to 8.00	> 7.00	–	–	–	7.00 to 8.00	–	–

Second part, led by results:

melting point [°C]	pIC50 (PI3Kα (p110α/p85α))	pIC50 [1]	pIC50 (H358)	pIC50 (H292)	pIC50 (H460)	pIC50 (H2122)	pIC50 (Calu6)	pIC50 (HCT116)	pIC50 (MiaPaca1)	pIC50 (A549)	pIC50 [2]	pIC50 (MDA-MB-231)	pIC50 (SW1990)	pIC50 (PANC-1)	SMILES	pIC50 (WiDr)	pIC50 (CFPAC-1)	pIC50 (CaPan2)
184 to 186	> 7.00	6.00 to 7.00	–	–	–	–	7.00 to 8.00	–	7.00 to 8.00	–	> 7.00	7.00 to 8.00	7.00 to 8.00	6.00 to 7.00	Cc1ncc(-c2nc(N3CCOCC3)c3sc(CN(C)c4ncc(C(=O)NO)cn4)cc3n2)cn1 [Compound 120, N-hydroxy-2-(methyl((2-(2-methylpyrimidin-5-yl)-4-morpholinothieno[3,2-d]pyrimidin-6-yl)methyl)amino)pyrimidine-5-carboxamide]	7.00 to 8.00	6.00 to 7.00	6.00 to 7.00
–	> 7.00	6.00 to 7.00	> 8.00	7.00 to 8.00	7.00 to 8.00	> 8.00	–	> 8.00	> 8.00	7.00 to 8.00	> 7.00	–	–	–	CC(O)c1cccc(-c2nc(N3CCOCC3)c3sc(CN(C)c4ncc(C(=O)NO)cn4)cc3n2)c1 (stereo not shown) [Compound 294, N-Hydroxy-2-(((2-(3-(1-hydroxyethyl)phenyl)-4-morpholinothieno[3,2-d]pyrimidin-6-yl)methyl)(methyl)amino)pyrimidine-5-carboxamide]	7.00 to 8.00	–	–
215 to 218	> 7.00	–	6.00 to 7.00	6.00 to 7.00	6.00 to 7.00	6.00 to 7.00	–	6.00 to 7.00	6.00 to 7.00	6.00 to 7.00	> 7.00	–	–	–	CNc1ccc(-c2nc(N3CCOCC3)c3sc(C(=O)NCC4CCN(c5ncc(C(=O)NO)cn5)CC4)cc3n2)cn1 [Compound 308, N-((1-(5-(Hydroxycarbamoyl)pyrimidin-2-yl)piperidin-4-yl)methyl)-2-(6-(methylamino)pyridin-3-yl)-4-morpholinothieno[3,2-d]pyrimidine-6-carboxamide]	6.00 to 7.00	–	–
250 to 255	> 7.00	> 7.00	7.00 to 8.00	–	7.00 to 8.00	7.00 to 8.00	–	7.00 to 8.00	7.00 to 8.00	6.00 to 7.00	> 7.00	–	–	–	CN(Cc1cc2nc(-c3cc(O)ccc3F)nc(N3CCOCC3)c2s1)c1ncc(C(=O)NO)cn1 [Compound 292, 2-(((2-(2-Fluoro-5-hydroxyphenyl)-4-morpholinothieno[3,2-d]pyrimidin-6-yl)methyl)(methyl)amino)-N-hydroxypyrimidine-5-carboxamide]	7.00 to 8.00	–	–
